According to US20110045593A1, “Transgenically mitigating the establishment and spread of transgenic algae in natural ecosystems by suppressing the activity of carbonic anhydrase” (priority 2009, published 2011):

How the values were obtained:
[1] = tested on: Nannochloropsis oculata CS-179; assay: Photosynthetic carbon dioxide fixation measured as oxygen evolution with an oxygen electrode, carbonic anhydrase suppressed by inhibitor; assay type: cell-based; conditions: 300 μM, incubated just prior to measurement
Protocol: Cultures were incubated with ethoxyzolamide just prior to measurement.
Measurements of O2 concentrations are performed using a Clark type O2 electrode (Pasco Scientific, Roseville, Calif., USA). 20 ml of cell suspension corresponding to 15 μg chlorophyll/ml are placed in the O2 electrode chamber, at relevant temperature. Cells are exposed to various light intensities and net O2 production is measured. Dark incubations are performed in air-tight vessels to follow light-independent O2 consumption.

[2] = tested on: non-transgenic algal or cyanobacterial cells; assay: In vivo pds assay: culture in fluorochloridone solution; assay type: cell-based; conditions: 0.1 μM in standard algae or cyanobacteria culture media
Protocol: In vivo pds assay. Putative transformed algal or cyanobacterial cells were cultured in a solution of 0.1 μM fluorochloridone in standard algae or cyanobacteria culture media.

Compound | photosynthetic carbon dioxide fixation (measured as oxygen evolution) ([1]; high CO2 concentration (FIG. 1A; more than 2%)) | photosynthetic carbon dioxide fixation (measured as oxygen evolution) ([1]; high CO2 concentration (FIG. 1A; more than 2%), listed as inhibitor) | photosynthetic carbon dioxide fixation (measured as oxygen evolution) ([1]; low CO2 concentration (FIG. 1B)) | photosynthetic carbon dioxide fixation (measured as oxygen evolution) ([1]; low CO2 concentration (FIG. 1B), listed as inhibitor) | killing of non-transgenic cells [2]
CCOc1ccc2nc(S(N)(=O)=O)sc2c1 [ethoxyzolamide, 6-ethoxy-2-benzothiazolesulfonamide] | no effect | no difference in photosynthesis | decreases photosynthetic carbon dioxide fixation | severely deficient in photosynthesis | 
O=C1C(Cl)C(CCl)CN1c1cccc(C(F)(F)F)c1 (centres unmarked) [fluorochloridone] |  |  |  |  | all non-transgenic cells are killed
